Columns and labels:
[1] = tested on: depression-like behavior of mice; assay: social defeat stress test; format: in vivo; settings: C57BL/6J mice after 9 days of defeat, p = 0.440, n = 14
Text: Male ICR mice (n = 317 in total) aged 5 weeks and weighing 32 ± 2 g were purchased from Shimizu Laboratory Supplies (Kyoto, Japan). For the social defeat stress test, we used 28 C57BL/6J mice (5 weeks old, Shimizu Laboratory Supplies) and 30 ICR mice (7–8 weeks old, Charles River Labs Japan, Yokohama, Kanagawa, Japan). Mice were maintained for at least 1 week prior to experiments. Animals were kept in groups in plastic cages. They had free access to food and water, and were kept in a 12-h light/dark cycle (08:00–20:00). Experiments were carried out between 10:00 and 18:00 in a quiet and air-conditioned experimental room, in which mice were habituated for at least 30 min before each experiment. Animal experiments were performed in accordance with the guidelines of the Physiological Society of Japan and were approved by the Committees on Animal Experiments at Kansai Medical University and the Kurashiki University of Science and the Arts. Ostruthin was initially dissolved in DMSO at higher concentration (100 mM) and then diluted in phosphate-buffered saline (PBS). The diluted solution was mixed vigorously for more than 10 min before the experiments, and an equal volume of DMSO was added to PBS as a control. […] Time spent in the target zone was measured firstly with the empty mesh enclosure for 150 sec. […]

[2] = target: T1, TREK-1 channel (Homo sapiens, UniProt O95069); assay: whole-cell patch-clamp of TREK-1 currents in TR-1 cells (293T stably expressing TREK-1); format: cell-based; settings: TR-1 (293T) cells, 25°C, applied 5 min after whole-cell access, n = 5; read-out: EC50 of activation of whole-cell TREK-1 currents
T1 construct: expressed in transfected cells
T1 sequence (O95069 1-426): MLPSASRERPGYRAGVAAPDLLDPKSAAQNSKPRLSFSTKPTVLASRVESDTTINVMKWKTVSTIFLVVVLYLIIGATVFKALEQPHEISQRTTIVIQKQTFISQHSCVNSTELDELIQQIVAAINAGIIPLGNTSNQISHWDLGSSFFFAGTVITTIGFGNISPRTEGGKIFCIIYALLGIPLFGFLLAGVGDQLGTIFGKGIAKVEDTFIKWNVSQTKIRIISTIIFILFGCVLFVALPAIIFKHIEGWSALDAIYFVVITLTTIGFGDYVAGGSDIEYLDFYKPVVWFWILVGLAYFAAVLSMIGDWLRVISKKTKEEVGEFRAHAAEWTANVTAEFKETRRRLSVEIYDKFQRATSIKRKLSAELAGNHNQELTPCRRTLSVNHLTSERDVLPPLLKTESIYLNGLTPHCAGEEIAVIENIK
Text: For recordings of K^+ channel currents, we prepared stable cell lines for TREK-1, TWIK-related acid-sensitive K^+ channel (TASK-1), strongly inwardly rectifying K^+ channel (Kir2.1), and human ether-a-go-go-related gene (HERG-1) channels and transiently expressed other channels in 293T cells using a calcium-phosphate transfection method. For the establishment of the stable lines, we used lentiviral vectors, and the preparation methods for the lentiviral vectors were described in our previous report. TR-1 cells, which stably expressed TREK-1 channel and were grown on a small cover glass (3 × 18 mm), were placed in a recording chamber with an internal volume of 200 μl. Whole-cell currents were recorded in Tyrode solution using an Axopatch 200B amplifier (Axon Instruments, Foster City, CA) at 25°C. […] Perfusion (100 μl/min) was continued to maintain the water level throughout recordings. pH and osmotic pressure of solutions were measured with a pH meter (Horiba, Kyoto, Japan) and a freezing point osmometer (Knauer, Berlin, Germany), respectively.
We previously prepared a lentiviral vector that expressed the TREK-1 channel and using this vector we established a cell line, TR-1, which stably expressed the channel. […] Immediately after whole-cell access, small outward currents were recorded in response to depolarizing step pulses (Fig 1A, 0 min). […]

EC50 [2]: 5.3 µM
Structure (SMILES): CC(C)=CCC/C(C)=C/Cc1cc2ccc(=O)oc2cc1O [ostruthin]
time difference in the interaction area (target zone) [1]: increased the time difference in the interaction area non-significantly
